The test system of experiment [1] is MCF-7 breast cancer cells. Description: Inhibition of proliferation of MCF-7 breast cancer cells (agarose culture, CellTiter-Glo 3D). The class given is cell-based. As to conditions: Homo sapiens, MCF7, 360 h. On the procedure: After 1.6% agarose and 0.7% agarose were sterilized at high temperature, they were cooled to around 50° C., and placed in a 42° C. water bath for later use. MCF-7 breast cancer cells were subcultured in complete cell culture medium, and cells in good growth condition were digested and counted for future use. 50 µL of 1.6% agarose mixed with 2× culture medium at a ratio of 1:1 was spread into the bottom of 96-well plate, and allowed to cool and solidify. 0.7% agarose was mixed with diluted cell suspension in a ratio of 1:1, and then 50 µL of the mixture of gel and cells was added to each well, with 2000 cells for each well; the mixture was allowed to cool and solidify at room temperature. 50 μL of culture medium was added to the plate containing cells, and the plate was placed in a 37° C., 5% CO2 incubator and cultured for 24 h. The drug was prepared into 10 mM stock solution with dimethyl sulfoxide (DMSO). The stock solution was diluted in a ratio of 1:3, to obtain 9 concentration gradients. Then, each concentration of compound solution was further diluted with culture medium in 1:250 (to ensure a DMSO concentration of 0.1% in the culture system). Two replicate wells was set for each concentration. 50 μL of the diluted compound solution was added to the cell culture wells (with final concentrations of 10 μM, 3.3 μM, 1.1 μM, 0.37 μM . . . ). The plate was gently shaken for mixing. Additionally, 3 negative control wells only containing cells and 3 blank control wells only containing culture medium were set up (each of the 6 wells was added with 50 μL of DMSO diluted with culture medium in a ration of 1:250). After 15 days of cultivation, the cell plates and CellTiter-Glo 3D Cell Viability were taken out and equilibrated to room temperature in advance. 80 μL of culture medium were aspirated and discarded from the cell plate, and 120 µL of CellTiter-Glo 3D Cell Viability solution was added to each well. The plates were centrifuged at 1200 rpm/min for 5 min, and then placed in the dark and kept for 25 min. The […] were measured using a multi-function microplate reader. The data were analyzed using the Dose-response-inhibition equation in GraphPad Prism8 software, and the IC50 values were obtained, as shown in Table 3.
On the technique in general: In ATP-based viability assays light output follows the ATP content of the culture.

For the next experiment, the target named is T1, ER (Homo sapiens, UniProt P03372).
T1 construct: T47D breast cancer cells were subcultured in cell culture medium; endogenous in cells; host or cells: T47D breast cancer cells
T1 sequence (P03372 1-595): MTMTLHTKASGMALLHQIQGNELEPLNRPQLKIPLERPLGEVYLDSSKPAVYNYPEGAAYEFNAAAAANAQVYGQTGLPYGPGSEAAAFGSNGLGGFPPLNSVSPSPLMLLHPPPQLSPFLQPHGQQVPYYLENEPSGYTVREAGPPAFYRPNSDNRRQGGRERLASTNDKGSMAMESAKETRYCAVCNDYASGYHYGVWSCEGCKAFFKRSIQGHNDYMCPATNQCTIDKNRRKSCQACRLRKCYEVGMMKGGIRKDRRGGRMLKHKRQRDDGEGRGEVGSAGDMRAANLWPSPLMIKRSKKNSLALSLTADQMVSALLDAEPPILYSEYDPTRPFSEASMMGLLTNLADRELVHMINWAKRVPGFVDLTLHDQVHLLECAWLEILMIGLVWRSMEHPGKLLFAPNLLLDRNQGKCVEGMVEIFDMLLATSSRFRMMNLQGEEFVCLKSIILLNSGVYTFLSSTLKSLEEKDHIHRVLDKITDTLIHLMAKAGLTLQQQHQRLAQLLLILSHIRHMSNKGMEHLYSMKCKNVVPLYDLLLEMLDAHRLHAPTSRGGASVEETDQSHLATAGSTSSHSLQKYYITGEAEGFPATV
Description: Degradation activities on ER (ELISA) in T47D breast cancer cells. As to conditions: for DC50: concentration required to degrade 50% of the target protein. Type of experiment: cell-based. How it is done: T47D breast cancer cells were subcultured in cell culture medium, and then the cells in good growth condition were seeded into 96-well plates at 80 µL/well, with 2.5×10^4 cells per well. The cells were incubated in a 37° C., 5% CO2 incubator for 3 days. The drug was prepared into a 10 mM stock solution with dimethyl sulfoxide (DMSO). Prior to use, the stock solution was diluted with cell culture medium to obtain six final concentrations (100 nM, 25 nM, 6.25 nM, 1.56 nM, 0.39 nM, and […]), and gently mixed. Additionally, negative control wells (only containing culture medium) and positive control wells (only containing cells and DMSO) were included. After the cells were incubated in the incubator for 24 h, the cells were rinsed once with ice-cold 1×PBS. […] The plate was sealed with plastic film, and incubated in a 37° C. incubator for 2 h. The film was removed. 200 μL of 1× washing buffer was added to each well, and then the plate was shaken for 5 min. The washing buffer was discarded, and the plate was pat-dried. The plate was washed four times. 100 μL of freshly prepared detection antibody (green) was added to each well of the ELISA plate. The plate was sealed with plastic film, and then incubated in a 37° C. incubator for 1 h. The film was removed, and the detection antibody was discarded. The plate was pat-dried. 200 μL of 1× washing buffer was added to each well, and then the plate was shaken for 5 min. The washing buffer was discarded, and the plate was pat-dried. The plate was washed four times. 100 μL of freshly prepared HRP-labeled secondary antibody (red) was added to each well of the ELISA plate. The plate was sealed with plastic film, and incubated in a 37° C. incubator for 30 min. The film was removed, the secondary antibody was discarded, and the plate was pat-dried, followed by adding 200 μL of 1× washing buffer to each well. The plate was shaken for 5 min, and the washing buffer was discarded before pat-drying the plate. The plate was washed four times. 100 μl of TMB substrate was added to each well of the ELISA plate, followed by incubating in a 37° C. incubator for 5 min. 100 μL of STOP solution was added to each well of the ELISA plate, and the plate was gently shaken for a few seconds. The bottom of each well was wiped with lint-free cloth. Within 30 min after adding the STOP solution, the absorbance was read at 450 nm. […] The data were analyzed using the Dose-response equation in GraphPad Prism8 software to obtain the DC50 and Dmax values, and both of them are important indicators for measuring the degradation activities of compounds on target proteins. […] The Dmax value represents the maximum percentage of target protein that can be degraded by the compound.
On the technique in general: ELISA stands for enzyme-linked immunosorbent assay.

Setting [2] is: MCF-7 cells, 15 days of cultivation, read-out: IC50.
Where [3] appears, read: T47D cells, 24 h, ELISA, maximum percentage of target protein degraded, read-out: Dmax.

Experimental findings from patent publication US20260258039A1, “AROMATIC COMPOUND, METHOD FOR PREPARING SAME, AND USE THEREOF IN PREPARATION OF ESTROGEN RECEPTOR DEGRADER” (Hinova Pharmaceuticals Inc., priority 2022, published 2026) are described below.

In general, pIC50 refers to −log10 of the IC50, conventionally taken in molar units. The term DC50 denotes the concentration at which degradation of the target reaches its halfway point. What is called Dmax is the greatest extent of degradation seen.

Structures are written as SMILES. pIC50: −log10 of the molar value. Where two headings read alike, the source gives them in different places.

For the compound `O=C1CCC(N2Cc3cc(N4CC5(CCN(CC6CCN(c7ccc([C@@H]8c9ccc(B(O)O)cc9OC[C@@H]8c8ccccc8F)cc7)CC6)CC5)C4)ccc3C2=O)C(=O)N1` (stereo partly drawn) [Example 101, (cis-4-(4-(4-((2-(2-(2,6-dioxopiperidin-3-yl)-1-oxoisoinodolin-5-yl)-2,7-diazaspiro[3.5]nonan-7-yl)methyl)piperidin-1-yl)phenyl)-3-(2-fluorophenyl)pyran-7-yl)boric acid], the pIC50 in experiment [1] (setting [2]) is 7.30 to 7.96.
With `O=C1CC[C@H](N2Cc3cc(N4CC5(CCN(CC6CCN(c7c(F)cc([C@@H]8c9ccc(O)cc9OC[C@@H]8c8c(F)cccc8F)cc7F)CC6)CC5)C4)ccc3C2=O)C(=O)N1` [Example 45], the pIC50 in experiment [1] (setting [2]) was > 8.00. For the same compound, the DC50 on ER (T47D cells, 24 h, ELISA) was < 10 nM. Also, the Dmax on ER (setting [3]) was > 75%.
For the compound `O=C1CCC(N2Cc3cc(N4CCC(N5CC6(CCN(c7ccc([C@@H]8c9ccc(O)cc9CC[C@@H]8c8ccccc8F)cc7)CC6)C5)CC4)ccc3C2=O)C(=O)N1` (stereo partly drawn) [Example 22, 3-(5-(4-(7-(4-((1R,2S)-2-(2-fluorophenyl)-6-hydroxyl-1,2,3,4-tetrahydronaphthalen-1-yl)phenyl)-2,7-diazaspiro[3.5]nonane-2-yl)piperidin-1-yl)-1-oxoisoinodolin-2-yl)piperidin-2,6-dione], the pIC50 in experiment [1] (setting [2]) is > 8.00. Further, the DC50 on ER (T47D cells, 24 h, ELISA) is < 10 nM.
`O=C1CCC(N2Cc3cc(N4CC5(CCN(CC6CCN(c7ccc([C@@H]8c9ccc(C(=O)O)cc9OC[C@@H]8c8ccccc8F)cc7)CC6)CC5)C4)ccc3C2=O)C(=O)N1` (stereo partly drawn) [Example 102, cis-4-(4-(4-((2-(2-(2,6-dioxopiperidin-3-yl)-1-oxoisoinodolin-5-yl)-2,7-diazaspiro[3.5]nonan-7-yl)methyl)piperidin-1-yl)phenyl)-3-(2-fluorophenyl)chroman-7-formic acid]: in experiment [1] (setting [2]), the pIC50 is < 7.30.
In the case of `O=C1CC[C@H](N2Cc3cc(N4CC5(CCN(CC6CCN(c7ccc([C@@H]8c9ccc(O)cc9OC[C@@H]8c8c(F)cccc8F)cc7F)CC6)CC5)C4)ccc3C2=O)C(=O)N1` [Example 75, (S)-3-(5-(7-((1-(4-((3S,4R)-3-(2,6-difluorophenyl)-7-hydroxychroman-4-yl)-2-fluorophenyl)piperidin-4-yl)methyl)-2,7-diazaspiro[3.5]nonane-2-yl)-1-oxoisoinodolin-2-yl)piperidin-2,6-dione], in experiment [1] (setting [2]), the pIC50 was > 8.00. Also, the DC50 at ER (T47D cells, 24 h, ELISA) was < 10 nM. In addition, the Dmax at ER (setting [3]) is > 75%.
As to `O=C1CCC(N2Cc3cc(N4CC5(CCN(CC6CCN(c7ccc([C@@H]8c9ccc(O)cc9OC[C@@H]8c8cccc(F)c8)cc7)CC6)CC5)C4)ccc3C2=O)C(=O)N1` (stereo partly drawn) [Example 60, 3-(5-(7-((1-(4-((3,4-cis)-3-(3-fluorophenyl)-7-hydroxyl-chroman-4-yl)phenyl)piperidin-4-yl)methyl)-2,7-diazaspiro[3.5]nonane-2-yl)-1-oxoisoindol-2-yl)piperidin-2,6-dione], the pIC50 in experiment [1] was > 8.00. This compound had a Dmax on ER (T47D) of 50 to 75%. Also, the DC50 on ER (T47D cells, 24 h, ELISA) is < 10 nM.
Regarding `O=C1CCC(N2Cc3cc(N4CC5(CCN(CC6CCN(c7c(F)cc(C8=C(c9c(F)cccc9F)COc9cc(O)ccc98)cc7F)CC6)CC5)C4)ccc3C2=O)C(=O)N1` (stereo not shown) [Example 42], the pIC50 in experiment [1] (setting [2]) is 7.30 to 7.96. In addition, the DC50 at ER (T47D cells, 24 h, ELISA) is < 10 nM. The Dmax on ER (setting [3]) lay in the range of 50 to 75%.
The matching figures for `O=C1CC[C@@H](N2Cc3cc(N4CC5(CCN(CC6CCN(c7ccc([C@@H]8c9ccc(O)cc9OC[C@@H]8c8c(F)cccc8F)cc7F)CC6)CC5)C4)ccc3C2=O)C(=O)N1` [Example 74, (R)-3-(5-(7-((1-(4-((3S,4R)-3-(2,6-difluorophenyl)-7-hydroxychroman-4-yl)-2-fluorophenyl)piperidin-4-yl)methyl)-2,7-diazaspiro[3.5]nonane-2-yl)-1-oxoisoinodolin-2-yl)piperidin-2,6-dione]: < 7.30, > 100 nM and < 50%.
The matching figures for `O=C1CC[C@@H](N2Cc3cc(N4CC5(CCN(CC6CCN(c7c(F)cc([C@@H]8c9ccc(O)cc9OC[C@@H]8c8c(F)cccc8F)cc7F)CC6)CC5)C4)ccc3C2=O)C(=O)N1` [Example 44]: < 7.30, > 100 nM and < 50%.
As for `O=C1CC[C@H](N2Cc3cc(N4CC5(CCN(CC6CCN(c7ccc([C@@H]8c9ccc(O)cc9OC[C@@H]8c8c(F)cccc8F)cc7)CC6)CC5)C4)ccc3C2=O)C(=O)N1` [Example 78, (S)-3-(6-(7-((1-(4-((3S,4R)-3-(2,6-difluorophenyl)-7-hydroxychroman-4-yl)phenyl)piperidin-4-yl)methyl)-2,7-diazaspiro[3.5]nonane-2-yl)-1-oxoisoinodolin-2-yl)piperidin-2,6-dione], the pIC50 in experiment [1] (setting [2]) is > 8.00.
On the same count and under the same terms, then `[2H]C1(N2Cc3cc(N4CC5(CCN(CC6CCN(c7ccc([C@@H]8c9ccc(O)cc9OC[C@@H]8c8c(F)cccc8F)cc7F)CC6)CC5)C4)ccc3C2=O)CCC(=O)NC1=O` (stereo partly drawn) [Example 93, 3-deutero-3-(5-(7-((1-(4-((3S,4R)-3-(2,6-difluorophenyl)-7-hydroxychroman-4-yl)-2-fluorophenyl)piperidin-4-yl)methyl)-2,7-diazaspiro[3.5]nonane-2-yl)-1-oxoisoinodolin-2-yl)piperidin-2,6-dione], with 7.30 to 7.96; and `O=C1CCC(NC(=O)c2ccc(N3CC4(CCN(CC5CCN(c6ccc([C@@H]7c8ccc(O)cc8OC[C@@H]7c7ccccc7F)cc6)CC5)CC4)C3)cc2F)C(=O)N1` (relative stereo) [Example 103, N-(2,6-dioxopiperidin-3-yl)-2-fluoro-4-(7-((1-(4-(cis-3-(2-fluorophenyl)-7-hydroxychroman-4-yl)phenyl)piperidin-4-yl)methyl)-2,7-diazaspiro[3.5]nonane-2-yl)benzamide], with < 7.30.
